Measurements as given in US11318190B2, “Methods and compositions for treating liver disease” (UNITED STATES GOVERNMENT AS REPRESENTED BY THE DEPARTMENT …, priority 2017, dated 2022).

Legend:
large IMCLs = experiment: Large IMCLs treated with secretin with/without LY2109761, or with TGF-β1 (Example 2); assay type: cell-based, mouse
From the text: Cholangiocytes were obtained by immunoaffinity separation as described herein above, using a monoclonal antibody (a gift from Dr. R. Faris, Brown University, Providence, R.I.) that is expressed by all intrahepatic cholangiocytes. HSCs from the selected groups of mice were isolated by LCM as described previously in Wu, N et al., The secretin/secretin receptor axis modulates liver fibrosis through changes in transforming growth factor-beta1 biliary secretion in mice, Hepatology (Baltimore, Md.) 64(3):865-879 (2016). Briefly, frozen liver sections (n=3, 10 μm thick) were incubated overnight with an anti-desmin (a marker of stellate cells) antibody. Then, desmin-positive cells were dissected from the slides using a LCM system Leica LMD7000 (Buffalo Grove, Ill.) and were collected before RNA extraction with the Arcturus PicoPure RNA isolation kit (Thermo Fisher Scientific CO, Mountain View, Calif.). The in vitro studies were performed in: (I) immortalized murine cholangiocyte lines derived from large cholangiocytes lining large ducts (IMCLs); and (ii) human hepatic stellate cell lines (HHSteCs; ScienCell Research Laboratories, Carlsbad, Calif.).
WT mice were treated for 1 wk with saline or secretin (Sct; 2.5 nmoles/kg body weight per day) before collecting cholangiocytes, HSCs and cholangiocyte supernatants. The levels of TGF-β1 were measured in short-term (6-hour) cultures of cholangiocytes by ELISA kits. Subsequently, we measured: (i) liver fibrosis by immunofluorescence for Col1a1 in liver sections and real-time PCR for TGF-β1, TFG-β1R, Col1a1, α-SMA and Fn1 in cholangiocytes and HSCs; and (ii) cellular senescence by immunofluorescence in liver sections for p16 and real-time PCR for p16 and p21 in cholangiocytes and HSC.
(§1) Biliary supernatants were obtained from normal and BDL WT mice and Sct^−/−, SR^−/− and Sct^−/−/SR^−/− BDL mice as well as normal WT mice treated with saline or secretin. HHSteCs were incubated with the aforementioned biliary supernatants (containing different levels of TGF-β1) for 24 hr (in the absence or presence of LY2109761) before measuring the expression of senescence and fibrosis genes by real-time PCR. Furthermore, HHSteCs were incubated with the supernatant of large IMCLs treated for 0.2% bovine serum albumin (basal) or secretin (10 nM) with/without LY2109761 for 6 hr before measuring the mRNA expression of fibrosis and senescence genes. To provide direct evidence that TGF-β1 directly modulates fibrosis and senescence of IMCLs and HHSteCs, these cells were stimulated with TGF-β1 (10 nM) for 24 hr before measuring the expression of PCNA as well as fibrosis and senescence genes by real-time PCR.

HHSteCs [1] = experiment: HHSteCs incubated with biliary/IMCL supernatants with/without LY2109761, or with TGF-β1 (Example 2); assay type: cell-based, human
Procedure: as §1

HHSteCs [2] = experiment: HHSteCs treated with cholangiocyte supernatants with/without LY2109761, TGF-β1 or r-VEGFA (Example 4); assay type: cell-based, human; conditions: 12 hr
Procedure: (§2) Cholangiocytes were obtained by immunoaffinity separation, Cholangiocytes were obtained by immunoaffinity separation as described herein above, using a monoclonal antibody (a gift from Dr. R. Faris, Brown University, Providence, R.I.) that is expressed by all intrahepatic cholangiocytes. Cell viability (greater than 97%) was assessed by trypan blue exclusion. HSCs were isolated by LCM as described herein above. Frozen liver sections (n=3, 10 μm thick) were incubated overnight with an antibody against desmin (marker of stellate cells). Following staining, desmin-positive HSCs were dissected from the slides by a LCM system Leica LMD7000 (Buffalo Grove, Ill.) and collected into a PCR tube before being analyzed. The RNA from HSCs was extracted with the Arcturus PicoPure RNA isolation kit (Thermo Fisher Scientific CO, Mountain View, Calif.). The in vitro studies were performed in our immortalized murine biliary cell lines (IMCLs) and human hepatic stellate cell lines (HHSteCs, Sciencell, Carlsbad, USA).
In biliary supernatants, the levels of TGF-β1 were measured by ELISA kits. HHSteCs were incubated with cholangiocyte supernatants from the selected groups of animals for 12 hr (in the absence or presence of LY2109761, 10 μM, a TGF-β1 receptor antagonist, Cayman Chemical, Ann Arbor, Mich.) before measuring the expression of VEGF-A and senescent and fibrosis genes by qPCR. To determine that Sct increases TGF-β1 levels by a microRNA 125b-dependent mechanism, IMCLs were treated with Sct (10 nM in the absence/presence of a microRNA 125b mimic precursor, 5 μM) for 12 hr before measuring TGF-β1 mRNA expression (by qPCR) and secretion by ELISA kits. To provide conclusive evidence that TGF-β1 directly modulates the function IMCLs and HHSteCs, these cells were stimulated with TGF-β1 (10 nM) for 12 hr before measuring the expression of VEGF-A and senescent and fibrosis genes by qPCR. […] We also evaluated by immunofluorescence the expression of VEGFR-2 in cell smears of IMCLs and HHSteCs. […]

IMCLs = IMCLs treated with Sct with/without microRNA 125b mimic precursor, TGF-β1 or r-VEGFA (Example 4); assay type: cell-based, mouse; conditions: TGF-β1 10 nM or r-VEGFA 100 nM, 12 hr
Procedure: as §2
In biliary supernatants, the levels of TGF-β1 were measured by ELISA kits. […] We also evaluated by immunofluorescence the expression of VEGFR-2 in cell smears of IMCLs and HHSteCs. […]

dnTGF-βRII mice [3] = experiment: dnTGF-βRII mice 12 wk (early stage PBC model) treated 1 wk by osmotic minipump; assay type: in vivo, mouse; conditions: dnTGF-βRII 12 wk; for intrahepatic bile duct mass (IBDM, CK-19): 1 wk minipump
Procedure: (§3) Briefly, we used wild-type (WT), dnTGFβRII 12 wk and dnTGFβRII 34 wk mice treated with control or SR antagonist (SCT 5-27) minipump (10 μg/kg/day) for 1 wk. Hepatic damage was shown by H&E. IBDM and cholangiocyte proliferation were measured by immunohistochemistry for CK-19 and Ki67, respectively. Biliary apoptosis was evaluated by TUNEL staining. Senescence was measured in cholangiocytes by immunofluorescence for CCL2 or p16 co-stained with CK-19 (to image bile ducts) and SA-β-Galactosidase activity. Hepatic fibrosis was assessed by qPCR for collagen-1a and α-SMA in total liver, and quantification of Sirius Red staining. Hepatic stellate cell (HSC) activation was evaluated by immunofluorescence (IF) for Syp-9. HSC senescence was evaluated by IF for CCL2 or p16 co-stained with desmin (to visualize HSCs). Secretin levels in serum and bile were measured by EIA. Bile and serum were obtained from human control, early PBC and advanced PBC patients, and secretin was evaluated by EIA.
(§4) All animal procedures were performed according to protocols approved by the Baylor Scott & White Health IACUC Committee. Transgenic mice expressing a dominant-negative form of the human transforming growth factor-beta receptor II (dnTGF-βRII) were obtained from Dr. M. Eric Gershwin at UC Davis Health (Sacramento, Calif.), and background-matched wild-type (WT, strain C57BL/6) mice were purchased from Charles River Laboratories (Wilmington, Mass.); the breeding colony is established in our animal facility. Animals were maintained in micro-isolator cages in a temperature-controlled environment with 12/12-hr light/dark cycles and fed ad libitum standard chow with free access to drinking water. Studies were performed in 12 wk-old WT mice, and 12 wk-old (mimic early stage PBC) and 32 wk-old (mimic late stage PBC) female and male dnTGF-βRII mice (25-30 gm) that were treated with either saline, secretin (Sct; 2.5 nmoles/kg body weight per day; Bachem, Torrance, Calif.) or the secretin receptor (SR) antagonist, Sec 5-27 (10 μg/kg body weight per day; Thermo Fisher Scientific, Waltham, Mass.) for 1 wk by intraperitoneally implanted osmotic minipump. Liver tissue samples and blocks (formalin-fixed, paraffin-embedded and OCT-embedded), serum, bile, cholangiocytes, and cholangiocyte supernatants (after incubation at 37° C. for 4 hr) were collected as described.
(§5) Hematoxylin and eosin (H&E) staining was performed in formalin-fixed, paraffin-embedded liver sections (4-5 μm, 3 samples from 3 different animals) to determine liver morphology. H&E stained liver sections were evaluated by a board-certified pathologist to assess the degree of lobular damage, hepatic necrosis and portal inflammation. At least 10 different portal areas were evaluated for each parameter. Liver sections were examined in a coded fashion by BX-51 light microscopy (Olympus, Tokyo, Japan) equipped with a camera (See, Mancinelli, R et al., Ischemia reperfusion of the hepatic artery induces the functional damage of large bile ducts by changes in the expression of angiogenic factors. Am J Physiol Gastrointest Liver Physiol 2015; 309:G865-873 (2015); Taffetani S et al., Prolactin stimulates the proliferation of normal female cholangiocytes by differential regulation of Ca2+-dependent PKC isoforms, BMC Physiol 7:6 (2007)).
(§6) Serum levels of alkaline phosphatase (ALP) and γ-glutamyltransferase (γGT) are commonly used to diagnose PBC (Heathcote, E J, Management of primary biliary cirrhosis. The American Association for the Study of Liver Diseases practice guidelines, Hepatology 31:1005-1013 (2000)); therefore, were measured serum levels of ALP and γGT in mouse serum samples using the Alkaline Phosphatase Assay Kit and γ-Glutamyltransferase Activity Colorimetric Assay Kit, respectively (Abcam; Cambridge, Mass.).
(§7) Early stage PBC is identified by cholangiocyte proliferation, whereas late stage PBC is characterized by ductopenia. […]

Mdr2−/− mice = conditions: cited from earlier work
dnTGF-βRII mice [4] = experiment: dnTGF-βRII mice 32-34 wk (late stage PBC model) treated 1 wk by osmotic minipump; assay type: in vivo, mouse; conditions: for intrahepatic bile duct mass (IBDM, CK-19): 1 wk minipump
Procedure: as §3, §4, §5, §6, §7

[5] = test system: human hepatic stellate cells (hHSC); experiment: hHSC activation by cholangiocyte supernatants from treated mice (qPCR); assay type: cell-based
Procedure: In vitro experiments were performed in human hepatic stellate cells (hHSC) that were purchased from ScienCell Research Laboratories (Carlsbad, Calif.) that were maintained in standard conditions.
[…] Activation of hHSCs was determined by qPCR for FN-1, TGF-β1, α-SMA, and collagen type-1a (Kennedy, L L et al., Knockout of microRNA-21 reduces biliary hyperplasia and liver fibrosis in cholestatic bile duct ligated mice, Lab Invest 96:1256-1267 (2016)).

TGF-β receptor type II = TGF-β receptor type II (Homo sapiens, UniProt P37173); conditions: cited from earlier work
[6] = vs saline treated, listed as SR antagonist
[7] = dnTGF-βRII 32/34 wk, vs saline treated
[8] = dnTGF-βRII 32/34 wk, listed as SR antagonist

Chain of TGF-β receptor type II (P37173 23-567): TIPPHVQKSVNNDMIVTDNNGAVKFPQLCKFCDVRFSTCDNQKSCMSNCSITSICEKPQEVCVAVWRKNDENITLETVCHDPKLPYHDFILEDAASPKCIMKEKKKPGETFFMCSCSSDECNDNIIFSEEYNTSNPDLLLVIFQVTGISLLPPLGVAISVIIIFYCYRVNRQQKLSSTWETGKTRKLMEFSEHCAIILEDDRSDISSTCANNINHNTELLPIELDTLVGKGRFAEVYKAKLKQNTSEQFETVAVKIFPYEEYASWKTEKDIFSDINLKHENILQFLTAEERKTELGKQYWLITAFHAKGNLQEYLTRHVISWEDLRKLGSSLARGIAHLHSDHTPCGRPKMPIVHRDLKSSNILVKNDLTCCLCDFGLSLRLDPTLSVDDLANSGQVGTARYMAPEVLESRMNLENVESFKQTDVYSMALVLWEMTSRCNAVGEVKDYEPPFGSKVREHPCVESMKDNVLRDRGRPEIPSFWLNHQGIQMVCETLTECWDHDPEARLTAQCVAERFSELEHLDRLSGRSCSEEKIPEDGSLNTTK

## TGF-β1: transforming growth factor-β1 used to stimulate IMCLs and HHSteCs (10 nM)
Large IMCLs; TGF-β1 10 nM, 24 hr
  PCNA mRNA expression of large IMCLs: decreased
  expression of fibrosis and senescence genes of large IMCLs: increased
HHSteCs [1]; direct TGF-β1 10 nM, 24 hr
  fibrosis gene expression in HHSteCs: stimulates
  senescence gene expression in HHSteCs: reduces
HHSteCs [2]; TGF-β1 10 nM or r-VEGFA 100 nM
  expression of VEGF-A, fibrosis genes in HHSteCs: increased
  senescence genes in HHSteCs: decreased
IMCLs
  expression of VEGF-A, fibrosis and senescence genes in IMCLs: increased

## 15-lysine-secretin-(5-27) [SCT 5-27]
dnTGF-βRII mice [3]
  HSC activation (SYP-9 staining): reduced
  HSC senescence: increased
  biliary senescence (p16, p18, p21, CCL2): reduced
  cholangiocyte apoptosis (TUNEL-positive cholangiocytes): enhanced
  cholangiocyte proliferation (Ki67): reduced
  liver damage (H&E: portal inflammation, inflammatory infiltration, lobular necrosis): reduced
  secretin levels (serum and bile, EIA): reduced
dnTGF-βRII mice [3]; vs saline treated
  Sct, SR, CFTR and AE2 expression: reduced
  collagen content / deposition (Sirius Red), hepatic fibrosis: significantly reduced
  serum levels of ALP and γGT: reduced
  intrahepatic bile duct mass (IBDM, CK-19): significantly reduced
dnTGF-βRII mice [3]; [6]
  intrahepatic bile duct mass (IBDM, CK-19): reduced
  collagen content / deposition (Sirius Red), hepatic fibrosis: ameliorated
dnTGF-βRII mice [3]; listed as SR antagonist
  biliary senescence (p16, p18, p21, CCL2): decreased
  cholangiocyte apoptosis (TUNEL-positive cholangiocytes): increased
  liver damage (H&E: portal inflammation, inflammatory infiltration, lobular necrosis): ameliorated
Mdr2−/− mice; BDL and Mdr2−/− mouse model of PSC
  hepatic fibrosis and HSC activation: reduced
Mdr2−/− mice; Mdr2−/− mice
  TGF-β1/TGF-β1 receptor axis expression: decreased
  biliary mass and HSCs activation: reduced
dnTGF-βRII mice [4]; dnTGF-βRII 32/34 wk
  biliary senescence (p16, p18, p21, CCL2): further increased
  cholangiocyte apoptosis (TUNEL): further increased
  collagen content / deposition (Sirius Red), hepatic fibrosis: increased
dnTGF-βRII mice [4]; [7]
  Sct, SR, CFTR and AE2 expression: further decrease
  intrahepatic bile duct mass (IBDM, CK-19): further reduced
dnTGF-βRII mice [4]; dnTGF-βRII 32/34 wk, vs saline treated, listed as SR antagonist
  intrahepatic bile duct mass (IBDM, CK-19): decreased
dnTGF-βRII mice [4]; [8]
  biliary senescence (p16, p18, p21, CCL2): increased
  cholangiocyte apoptosis (TUNEL): exacerbated
  collagen content / deposition (Sirius Red), hepatic fibrosis: further increased
dnTGF-βRII mice [4]; dnTGF-βRII 34 wk
  HSC activation (SYP-9): increased
  biliary growth / cholangiocyte proliferation: further reduced
  liver damage (H&E): exacerbated
  secretin levels (serum; serum and bile): reduced
dnTGF-βRII mice [4]; dnTGF-βRII 34 wk, listed as SR antagonist
  HSC activation (SYP-9): enhanced
[5]; cholangiocyte supernatants from treated dnTGF-βRII mice 12 wks
  expression of FN-1, TGF-β1, α-SMA and collagen type-1a in hHSCs: reduced
[5]; cholangiocyte supernatants from treated dnTGF-βRII mice 34 wks
  expression of FN-1, TGF-β1, α-SMA and collagen type-1a in hHSCs: enhanced

## c1ccc(-c2nn3c(c2-c2ccnc4cc(OCCN5CCOCC5)ccc24)CCC3)nc1 [LY2109761]
Large IMCLs; LY2109761 10 nM
  effect of preincubation on secretin-induced TGF-β1 secretion and fibrosis/senescence genes of large IMCLs: prevented
HHSteCs [1]; before supernatant from secretin-treated WT mice
  effect of preincubation on fibrosis/senescence gene changes in HHSteCs: reversed
HHSteCs [1]; supernatant of secretin-treated large IMCLs
  effect of preincubation on fibrosis/senescence gene changes of HHSteCs: reversed
TGF-β receptor type II
  Ki: 300 nM
HHSteCs [2]; LY2109761 10 μM, cholangiocyte supernatants from Mdr2−/− mice
  effect of preincubation on VEGF-A, fibrosis and senescence gene changes in HHSteCs: reversed
